Laboratory results published in US11719696B2, “Methods and compounds for diagnosing threonyl-tRNA synthetase-associated diseases and conditions” (The University of Vermont and State Agricultural College, priority 2012, dated 2023).

What was measured:
human TARS = assay: GTPase (GTP hydrolysis) assay; format: biochemical; conditions: for change in TARS GTPase activity upon treatment: 10 μM compound
HUVECs [1] = assay: TARS mRNA by quantitative RT-PCR; format: cell-based, Human; conditions: HUVECs exposed to 50 ng/ml
Method: Quantitative RT-PCR—Total RNA was extracted from cells using the RNeasy column protocol and cDNA was generated using an Omniscript reverse transcriptase assay according to the manufacturer's instructions (Qiagen, Frederick, Md.). Primers and probes for TARS and β2-microglobulin were Assays-on-Demand (Applied Biosystems, [Life Technologies, Carlsbad, Calif.]). RT-qPCR was performed using an ABI prism 7700 Sequence Detection System (Applied Biosystems). The relative quantity of mRNA level was determined using the comparative CT (ΔΔCT) method using β2-microglobulin to normalize mRNA level (Cassavaugh, Hale et al. 2011).

[2] = test system: chorioallantoic membrane (CAM); assay: Chick chorioallantoic membrane (CAM) assay; format: in vivo, chicken; conditions: for CAM vessel formation / vascularization on application of protein: purified protein applied daily to sponge on CAM, 72 h
Method: Chick Chorioallantoic Membrane Assay—Fertilized chicken eggs (Sunrise Farms, Catskill, N.Y.) day 1-2 post-laying were incubated in a humidified incubator at 37° C. for 72 h. Cleaned eggs were cracked and plated in a sterile 10 cm^2 tissue culture-treated dish and incubated at 37° C. for another 7 days. On developmental day 10, 1 mm sterile gelatin sponge pieces (Surgifoam®; Johnson & Johnson Wound Management, Somerville, N.J.) were placed within the outer one-third of the membrane between large vessels. 40 μg/ml human bFGF and 2 μg/ml human VEGF were used as pro-angiogenic control compounds; 100 μg/mL retinoic acid (Sigma-Aldrich, St. Louis, Mo.) diluted in phosphate-buffered saline (PBS) was used as an angiostatic control. All compounds were applied in 10 μl to the CAM every 24 h for 72 h. Images were taken using a Leica MZ6 stereomicroscope every 24 h. Compounds were scored according to a modified version of Intensity Scoring as previously described (Ribatti, Nico et al. 2006). Briefly, each experimental condition was given a blinded score from 0-5 based on the change in the extent of vessel convergence and formation in proximity to the sponge from day 0 to day 3. Total score is averaged individual experimental condition scores from at least 15 replicates.
Fertilized chicken embryos were cultured ex-ova and, starting at developmental day 10, agents were applied daily to gelfoam sponges on the CAM. Images were recorded daily over 72 h and scored blindly according to a modified version Intensity Scoring as previously described (Ribatti, Nico, 2006). Additional details regarding methods are provided in the Methods and Materials section of Example 1.

[3] = test system: SK-OV3 ovarian cancer cells; assay: HIF-1α stabilization in hypoxia (Western blot); format: cell-based, Human
Method: Co-Immunoprecipitation—Plasmids expressing biotinylatable TARS (pTARS) and myc-tagged VHL (pVHL) were transfected into HEK293 cells, and then extracts were prepared. Biotin-TARS was precipitated using streptavidin-coupled beads. Myc-VHL was precipitated using anti-myc antibodies. Precipitates were separated by SDS-PAGE, transferred and blots probed with anti-TARS antibody or anti-myc (VHL) antibody. Western blot—After treatments, cells were harvested into sample buffer containing: 0.2 M Tris-HCL, 4% SDS, 4% β-mercaptoethanol, 40% glycerol, 4 μM pyronin Y. Extracts were sheared through a 24-gauge syringe. Samples were separated by 10% SDS-PAGE and transferred to nitrocellulose membrane and probed with rabbit polyclonal anti-TARS (1:500; Santa Cruz Biotechnology, Dallas, Tex.) or monoclonal anti-HIF-1α (BD Transduction Laboratories, [BD Biosciences, San Jose, Calif.]) (Lounsbury, Beddow et al., 1994). […] Major bands and their empty vector counterparts were detected using SilverSNAP Stain Kit II (Pierce) and excised. […] Peptides were analyzed by electospray ionization (ESI) liquid chromatography mass spectrometry (LC-MS). […] Spectra were obtained using collision-induced dissociation with an LTQ linear quadrupole ion trap-Orbitrap mass spectrometer (Thermo Electro, San Jose, Calif.) and analyzed using SEQUEST (Bioworks software package, version 3.3.1; Thermo Electron, San Jose, Calif.). […]

HUVECs [4] = assay: Endothelial cell proliferation assay (alamarBlue); format: cell-based, Human; conditions: 10 nM BC194 with 50 ng/ml VEGF, low serum media
Method: Endothelial Cell Proliferation Assay—The […] alamarBlue® (Invitrogen) reagent was used to assess cell proliferation (Ahmed, Gogal et al. 1994). HUVECs were seeded in a 96-well dish (1×10^3 cells/well) and grown for 48 h in EGM®-2 media. Cells were incubated in 0.2% FBS EGM®-2 media or EGM®-2 complete media as indicated; VEGF (50 ng/ml) and media alone served as controls. After 48 h, 72 h, or 96 h in culture, 10 μl/well premixed alamarBlue® (Invitrogen) was added and after 3 h at 37° C. the amount of reduced alamarBlue® was quantified by fluorescence (excitation at 530 nm, emission at 590 nm) on a microplate reader (Synergy™ HT, BioTek, Winooski, Vt.).

[5] = test system: Human umbilical vein endothelial cells (HUVECs); assay: In vitro endothelial tube formation assay; format: cell-based
Method: In vitro Tube Formation Assay—Tube formation assays were performed as described (Arnaoutova and Kleinman 2010; Cassavaugh, Hale et al., 201). Human Umbilical Vein Endothelial Cells (HUVECs) were seeded in 48-well plates (1.5×10^4 cells/well) coated with 100 μl of Matrigel™ Basement Membrane Matrix Growth Factor Reduced (BD Biosciences, San Jose, Calif.) and incubated in Clonetics® EGM®-2 complete media (Lonza, Annandale, N.J.) or EGM®-2 with reduced serum (0.2% fetal bovine serum). Cells were incubated at 37° C. for 6 h then fixed in 10% formalin. Fixed samples were imaged by phase-contrast microscopy or stained with Oregon Green 488 Phalloidin (Molecular Probes, Eugene, Oreg.) then imaged with fluorescence microscopy (2× objective). Number of tubes and tube lengths (in pixels) were quantified using the Simple Neurite Tracer (Longair, Baker et al. 2011) plug-in on ImageJ software (NIH). Statistical analysis of one-way ANOVA was performed with GraphPad Software. Multiple comparisons were performed using the Tukey Test.

[6] = canonical substrate added to human TARS

Question: How did the “increase in GTPase activity” value (human TARS; [6]) turn out when C[C@@H](O)[C@H](N)C(=O)O [threonine] was run?
Answer: The value was 26%.

Question: How did the “TARS transcription (TARS mRNA)” value (HUVECs [1]) turn out when VEGF was run?
Answer: The value was “do not induce TARS transcription”.

Question: For “LARS: N-terminal His6-tagged human leucyl tRNA synthetase purified from E. coli”, which “CAM vessel formation / vascularization on application of protein” value (shortened to “CAM vessel formation / vascularization”) [2] is on record?
Answer: Its value is “no observable effect”.

Question: Which “decrease in GTPase activity” value (human TARS; [6]) does the source give for Nc1ncnc2c1ncn2[C@@H]1O[C@H](COP(=O)(O)OP(=O)(O)OP(=O)(O)O)[C@@H](O)[C@H]1O [ATP] here?
Answer: The value was 77%.

Question: C[C@@H]1C[C@H](C)C[C@H](C)[C@@H](O)CC(=O)O[C@H]([C@@H]2CCC[C@H]2C(=O)O)C/C=C/C=C(/C#N)[C@H](O)[C@@H](C)C1 [borrelidin, reference compound] was tested. Which “change in TARS GTPase activity upon treatment” value (human TARS) did it give?
Answer: Its value is “no observable change”.

Question: And the HIF-1α transcription [3]?
Answer: The HIF-1α transcription was “no change”.

Question: For C[C@@H]1C[C@H](C)C[C@H](C)[C@@H](O)CC(=O)O[C@H]([C@@H]2CC[C@H]2C(=O)O)C/C=C/C=C(/C#N)[C@H](O)[C@@H](C)C1 [BC194, reference compound], which “CAM vessel formation with inhibitor” value ([2]; daily application to gel sponge, basal level and after stimulation with bFGF or VEGF) is on record?
Answer: The value was “inhibited vessel formation”.

Question: What about the “effect on VEGF proliferative response” value (HUVECs [4]) of the same molecule?
Answer: The value was “did not significantly reduce”.

Question: And the “change in TARS GTPase activity upon treatment” value (human TARS)?
Answer: Its value is “no observable change”.

Question: And the tube length ([5]; HUVECs on Matrigel, range of BC194 concentrations, 6 h)?
Answer: The tube length was “unaffected”.

Question: And the “concentration required to affect tube formation relative to that required to detect unfolded protein response (phospho-eIF2a) and apoptosis (cleaved caspase-3)” value ([5]; fold lower)?
Answer: Its value is 100 fold.

Question: And the HIF-1α transcription [3]?
Answer: The HIF-1α transcription was “no change”.

Question: Which “TARS transcription (TARS mRNA)” value (HUVECs [1]) does the source give for TNF-α here?
Answer: The value was “do not induce TARS transcription”.

B1: L567V TARS: BC194-resistant (borrelidin-resistant) L567V mutant of human TARS (protein, UniProt P26639 1-723, looked up, variant L567V)
Threonine--tRNA ligase 1, …: MFEEKASSPSGKMGGEEKPIGAGEEKQKEGGKKKNKEGSGDGGRAELNPWPEYIYTRLEMYNILKAEHDSILAEKAEKDSKPIKVTLPDGKQVDAESWKTTPYQIACGISQGLADNTVIAKVNNVVWDLDRPLEEDCTLELLKFEDEEAQAVYWHSSAHIMGEAMERVYGGCLCYGPPIENGFYYDMYLEEGGVSSNDFSSLEALCKKIIKEKQAFERLEVKKETLLAMFKYNKFKCRILNEKVNTPTTTVYRCGPLIDLCRGPHVRHTGKIKALKIHKNSSTYWEGKADMETLQRIYGISFPDPKMLKEWEKFQEEAKNRDHRKIGRDQELYFFHELSPGSCFFLPKGAYIYNALIEFIRSEYRKRGFQEVVTPNIFNSRLWMTSGHWQHYSENMFSFEVEKELFALKPMNCPGHCLMFDHRPRSWRELPLRLADFGVLHRNELSGALTGLTRVRRFQQDDAHIFCAMEQIEDEIKGCLDFLRTVYSVFGFSFKLNLSTRPEKFLGDIEVWDQAEKQLENSLNEFGEKWELNSGDGAFYGPKIDIQIKDAIGRYHQCATIQLDFQVPIRFNLTYVSHDGDDKKRPVIVHRAILGSVERMIAILTENYGGKWPFWLSPRQVMVVPVGPTCDEYAQKVRQQFHDAKFMADIDLDPGCTLNKKIRNAQLAQYNFILVVGEKEKISGTVNIRTRDNKVHGERTISETIERLQQLKEFRSKQAEEEF
Question: B1 was tested. Which “sensitivity of the protein's CAM angiogenic effect to BC194” value ([2]; protein co-applied with BC194) did it give?
Answer: The value was “not inhibited”.

Question: What about the “CAM vessel formation / vascularization” value [2] of the same molecule?
Answer: Its value is “stimulated vessel formation”.

B2: R442A TARS: aminoacylation-deficient human TARS mutant, active site Arg442 substituted with alanine (protein, UniProt P26639 1-723, looked up, variant R442A)
Threonine--tRNA ligase 1, …: MFEEKASSPSGKMGGEEKPIGAGEEKQKEGGKKKNKEGSGDGGRAELNPWPEYIYTRLEMYNILKAEHDSILAEKAEKDSKPIKVTLPDGKQVDAESWKTTPYQIACGISQGLADNTVIAKVNNVVWDLDRPLEEDCTLELLKFEDEEAQAVYWHSSAHIMGEAMERVYGGCLCYGPPIENGFYYDMYLEEGGVSSNDFSSLEALCKKIIKEKQAFERLEVKKETLLAMFKYNKFKCRILNEKVNTPTTTVYRCGPLIDLCRGPHVRHTGKIKALKIHKNSSTYWEGKADMETLQRIYGISFPDPKMLKEWEKFQEEAKNRDHRKIGRDQELYFFHELSPGSCFFLPKGAYIYNALIEFIRSEYRKRGFQEVVTPNIFNSRLWMTSGHWQHYSENMFSFEVEKELFALKPMNCPGHCLMFDHRPRSWRELPLRLADFGVLHANELSGALTGLTRVRRFQQDDAHIFCAMEQIEDEIKGCLDFLRTVYSVFGFSFKLNLSTRPEKFLGDIEVWDQAEKQLENSLNEFGEKWELNSGDGAFYGPKIDIQIKDAIGRYHQCATIQLDFQLPIRFNLTYVSHDGDDKKRPVIVHRAILGSVERMIAILTENYGGKWPFWLSPRQVMVVPVGPTCDEYAQKVRQQFHDAKFMADIDLDPGCTLNKKIRNAQLAQYNFILVVGEKEKISGTVNIRTRDNKVHGERTISETIERLQQLKEFRSKQAEEEF
Question: With B2 as the molecule, how does the “CAM vessel formation / vascularization” value [2] read?
Answer: Its value is “virtually indistinguishable from wild type”.
